How the values were obtained:
[1] = molecular target: T1, rat adrenergic α1B receptor (Rattus norvegicus, UniProt P15823); test: Radioligand binding, adrenergic α1B (Protocol Group A); details: 0.1 μM compound, [3H]Prazosin, read-out: percent inhibition of specific binding, Adrenergic α1B
T1 construct: rat adrenergic α1B receptor obtained from Wistar Rat liver; from tissue; host or cells: Wistar rat liver
T1 sequence (P15823 1-515): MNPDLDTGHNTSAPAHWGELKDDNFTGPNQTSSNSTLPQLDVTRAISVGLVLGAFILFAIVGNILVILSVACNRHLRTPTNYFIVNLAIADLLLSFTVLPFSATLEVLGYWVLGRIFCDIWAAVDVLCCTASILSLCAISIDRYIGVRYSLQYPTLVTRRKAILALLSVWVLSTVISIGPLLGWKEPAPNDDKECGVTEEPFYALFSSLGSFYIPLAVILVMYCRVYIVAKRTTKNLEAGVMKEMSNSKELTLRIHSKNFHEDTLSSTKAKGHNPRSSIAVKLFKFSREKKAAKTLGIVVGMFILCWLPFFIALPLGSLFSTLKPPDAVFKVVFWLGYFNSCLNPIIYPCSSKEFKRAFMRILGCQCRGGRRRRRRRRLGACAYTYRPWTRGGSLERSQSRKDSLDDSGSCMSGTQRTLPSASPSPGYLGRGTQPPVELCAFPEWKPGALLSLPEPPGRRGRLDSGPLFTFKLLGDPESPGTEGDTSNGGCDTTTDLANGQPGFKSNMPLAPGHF
Description: To evaluate in radioligand binding assays the activity of compounds of the invention, rat adrenergic α1B receptor obtained from Wistar Rat liver (Garcia-S'ainz, J. et al, Biochem. Biophys. Res. Commun. 186:760, 1992; Michel, A. et al, Br. J. Pharmacol. 98:883, 1989) in a modified Tris-HCl buffer (50 mM Tris-HCl buffer, pH 7.4, 0.5 mM EDTA) was used. Compounds of the invention were incubated with 0.25 nM [^3H]Prazosin for 60 min at 25° C. Non-specific binding was estimated in the presence of 10 μM phentolamine. Receptor proteins were filtered and washed, the filters were then counted to determine [^3H]Prazosin specifically bound. Compounds were screened at 1 μM or lower, using 1% DMSO as vehicle. Compounds of the invention were tested in this biochemical assay and percent inhibition of specific binding was determined. Biochemical assay results are presented as the percent inhibition of specific binding in Table B1a.

[2] = Stability in the presence of human hepatocytes; assay type: in vitro ADME; details: both sexes, human, cryopreserved hepatocytes, pH 7.4, human hepatocytes, 37° C., average of duplicates, ^a = 0-120 minute time points, read-out: T1/2 Human
Description: (§1) Compounds of the invention were tested for stability in the presence of dog, rat and human hepatocytes over a 4 hour period by LC/MS/MS. The study was performed by Integrated Analytical Solutions, Berkeley, Calif.
(§2) Reference Standards and Solutions: Compounds of the invention were stored as powders at ambient temperature in a desiccator and protected from light. Reference stock solutions of Compound Nos. 50a, 50b, 79a, 82, 91a and 178d, as 20 mM in DMSO were prepared and subsequently diluted to 2 mM in MeOH to provide working stock solutions (WSS). Unused standard solutions were stored at −20° C.
(§3) Hepatocyte Preparation: Human (mixed gender), Beagle dog (male) and Sprague Dawley rat (male) cryopreserved hepatocytes were purchased from Life Technologies Corporation. Hepatocytes were removed from liquid nitrogen, quickly thawed in a 37° C. water bath and transferred to Hepatocyte Thawing/Plating Medium (Cryopreserved Hepatocyte Recovery Medium, CHRM, Life Technologies Inc.). The cells were pelleted by slow speed centrifugation (˜100×g, 6 min) and resuspended at a high cell density. Hepatocyte viability was determined by trypan blue exclusion. Hepatocyte incubation medium (Life Technologies, Inc.) was added to generate a cell density of 2.0×10^6 cells/mL.
(§4) Hepatocyte Incubations for Stability: The 2 mM WSS was diluted 1 in 200 in hepatocyte incubation medium (pH 7.4) to 10 μM. A solution containing control compounds was prepared similarly to contain 10 μM each of dextromethorphan and testosterone. The solutions of test compounds and controls at 10 μM in hepatocyte incubation medium were pre-incubated at 37° C. for 10 min. Aliquots (250 μL) of hepatocyte suspensions (at 2.0×10^6 cells/mL) were transferred to appropriate 48-well plates and pre-incubated at 37° C. for 10 minutes. Metabolism was initiated by adding 250 μL pre-incubated medium (containing test drug) to wells containing cells. A negative control reaction excluding hepatocytes was used to monitor aqueous stability and/or non-specific adsorption. The final reaction mixtures contained 5 μM of test or control compound and 1.0×10^6 cells/mL. All reactions were performed in duplicate and carried at 37° C. in an incubator. Dextromethorphan and testosterone were used as control drugs to verify hepatocyte activity.
(§5) Aliquots were removed from each metabolism reaction at 0, 0.5, 2 and 4 hours. The reactions were terminated by adding each aliquot to a vessel containing 2× volumes (80 μL) of Internal Standard Solution (acetonitrile containing 50 ng/mL 2-(2,8-dimethyl-3,4-dihydro-1H-pyrido[4,3-b]indol-5(2H)-yl)-1-(pyridin-4-yl)ethanol (ISS1), 50 ng/mL of 2-(2,8-dimethyl-3,4-dihydro-1H-pyrido[4,3-b]indol-5(2H)-yl)-1-(piperidin-1-yl)ethanone (ISS2) and 5 ng/mL diphenhydramine. Terminated reactions were centrifuged at 6000 g for 30 mins at 4° C. to remove the precipitated proteins and cell debris. Following centrifugation, 20 μL of each supernatant was transferred to a deep-well microplate and diluted with 5× volumes (100 μL) of 0.2% formic acid in water. Compound 178d samples were diluted with 5× volumes (100 μL) of 0.1% HFBA in water. Samples were analyzed by LC/MS/MS.
(§6) Calculation of Metabolism Parameters: Percent remaining was measured by dividing the analyte/IS peak area ratio at the designated sample time by the peak area ratio at time 0. ISS1 served as the IS for Compound No. 178d. ISS2 served as the IS for Compound nos. 50a, 50b, 79a, 82 and 91a. The metabolic half-life (T1/2) was calculated using all time points unless otherwise noted. The T1/2 values were calculated as 0.693/k, where k is the slope of the log analyte/internal standard peak area ratio versus time. Metabolism rate was calculated by dividing the starting concentration of substrate by the concentration of hepatocytes, then dividing by the T1/2 value.

[3] = Stability in the presence of dog hepatocytes; assay type: in vitro ADME, Beagle dog; details: male, Beagle, dog, cryopreserved hepatocytes, pH 7.4, dog hepatocytes, 37° C., average of duplicates, ^a = 0-120 minute time points, read-out: T1/2 Dog
Description: as §1, §2, §3, §4, §5, §6

[4] = Stability in the presence of rat hepatocytes; assay type: in vitro ADME, Sprague Dawley rat; details: male, Sprague Dawley, rat, cryopreserved hepatocytes, pH 7.4, rat hepatocytes, 37° C., average of duplicates, ^a = 0-120 minute time points, read-out: T1/2 Rat
Description: as §1, §2, §3, §4, §5, §6

For `Cc1ccc2c(c1)c1c(n2CC(OC(=O)N2CCCC2)c2ccncc2)CCN(C)C1` (single isomer, unassigned) [4b], the inhibition at 0.1 µM [1] was 35%.

In the case of `Cc1ccc2c(c1)c1c(n2CC(C)(O)c2ccc(F)nc2)CCN2CCCC12` (single isomer, unassigned) [6a], the inhibition at 0.1 µM [1] is reported as 91%.

Compound `Cc1cc2c3c(n(CC(C)(O)c4ccncc4)c2cc1Cl)CCN1CCCC31` (single isomer, unassigned) [50a] has a half-life at 5 µM [2] of 1.92 h, a half-life at 5 µM [3] of 2.03 h and a half-life at 5 µM [4] of 2.43 h.

Compound `Cc1cc(Cl)c2c(c1)c1c(n2CC(C)(O)c2ccncc2)CCN2CCCC12` (single isomer, unassigned) [91a] has a half-life at 5 µM [2] of 2.3 h, a half-life at 5 µM [3] of 1.37 h and a half-life at 5 µM [4] of 2.82 h.

For `Cc1ccc2c(c1)c1c(n2CC(O)c2ccncc2)CCN2CCCC12` (single isomer, unassigned) [Compound No. 178d], the half-life at 5 µM [2] was 2.23 h, the half-life at 5 µM [3] was 4 h and the half-life at 5 µM [4] was > 4 h.

For `Cc1cc(F)c2c(c1)c1c(n2CC(C)(O)c2cccnc2)CCN2CCCC12` (centres unmarked) [Compound No. 79a], the half-life at 5 µM [2] was > 4 h, the half-life at 5 µM [3] was 3.02 h and the half-life at 5 µM [4] was 3.5 h.

In the case of `Cc1ccc2c(c1)c1c(n2C[C@@H](OC2CCCC2)c2ccncc2)CCN2CCC[C@H]12` [compound 82, (11cR)-7-[(25)-2-(cyclopentoxy)-2-(4-pyridyl)ethyl]-10-methyl-1,2,3,5,6,11c-hexahydroindolizino[7,8-b]indole], the half-life at 5 µM [2] is reported as 0.817 h, the half-life at 5 µM [3] is reported as 0.8 h and the half-life at 5 µM [4] is reported as 0.767 h.

From patent publication US20150315188A1, “COMPOUNDS AND METHODS FOR TREATMENT OF HYPERTENSION” (MEDIVATION TECHNOLOGIES, INC., priority 2012, published 2015)
